Assay results reported in patent publication US4948782A, “A method of promoting the growth of domestic animals with erythromycin derivative containing composition” (Kitasato Kenkyusho, priority 1987, dated 1990).
In brackets after ≈: the same amount, converted by molar mass. Like-named read-outs stand apart in the source and are kept apart here.

Key:
Assay type in all cases: cell-based
[1] = tested on: Klebsiella pneumoniae ATCC 10031; assay: MIC, Klebsiella pneumoniae ATCC 10031 (KP)
Bacillus subtilis = assay: MIC, Bacillus subtilis (BS); settings: read-out: MIC BS
[2] = tested on: Staphylococcus aureus FDA 209P; assay: MIC, Staphylococcus aureus FDA 209P (SA(2)); settings: Staphylococcus aureus, FDA209P, read-out: MIC SA (2)
Text: (§1) The minimum inhibitory concentrations (MIC: mcg/ml) of the erythromycin derivatives of the present invention and the control erythromycin derivative (*) as the known growth promoting agent on typical test bacteria are shown in the following Tables 1 to 5.
SA(2): Staphylococcus aureus FDA 209P

Bacillus cereus IFO 3001 = assay: MIC, Bacillus cereus IFO 3001 (BC); settings: Bacillus cereus
Escherichia coli NIHJ = assay: MIC, Escherichia coli NIHJ (EC)
[3] = tested on: Staphylococcus aureus ATCC 6538P; assay: MIC, Staphylococcus aureus ATCC 6538P (SA(1)); settings: Staphylococcus aureus, ATCC6538P, read-out: MIC SA (1)
Text: as §1
SA(1): Staphylococcus aureus ATCC 6538P

[4] = ATCC10031, Klebsiella pneumoniae ATCC 10031, read-out: MIC KP
[5] = IFO3001, Bacillus cereus IFO 3001, read-out: MIC BC
[6] = Staphylococcus aureus ATCC 6538P

SMILES	MIC [1, 4]	MIC (Bacillus subtilis)	MIC ([2]; Staphylococcus aureus FDA 209P)	MIC (Bacillus cereus IFO 3001; [5])	MIC (Escherichia coli NIHJ)	MIC [3, 6]	MIC ([1]; Klebsiella pneumoniae, ATCC10031, read-out: MIC KP)	MIC [2]	MIC (Bacillus cereus IFO 3001; IFO3001, read-out: MIC BC)	MIC [3]
CC[C@H]1OC(=O)[C@H](C)[C@@H](O[C@H]2C[C@@](C)(OC)[C@@H](O)[C@H](C)O2)[C@H](C)[C@@H](O[C@@H]2O[C@H](C)C[C@H](N(C)C)[C@H]2O)[C@@]2(C)CC(C)C(O2)[C@H](C)[C@@H](O)[C@]1(C)O (some centres unmarked) [*1, reference compound]	> 100 µg/mL	6.25 µg/mL (≈ 8.71 µM)	12.5 µg/mL (≈ 17.4 µM)	12.5 µg/mL (≈ 17.4 µM)	> 100 µg/mL	12.5 µg/mL (≈ 17.4 µM)	–	–	–	–
CC[C@H]1OC(=O)[C@H](C)[C@@H](O[C@H]2C[C@@](C)(OC)[C@@H](O)[C@H](C)O2)[C@H](C)[C@@H](O[C@@H]2O[C@H](C)C[C@H](N(C)C)[C@H]2O)[C@@]2(C)CC(C)C3(O[C@@]1(C)[C@H](O)[C@H]3C)O2 (some centres unmarked) [*2 (EM202), Anhydroerythromycin A, reference compound]	–	–	12.5 µg/mL (≈ 17.5 µM)	–	–	12.5 µg/mL (≈ 17.5 µM)	–	–	–	–
CC[C@H]1OC(=O)[C@H](C)[C@@H](O[C@H]2C[C@@](C)(OC)[C@@H](O)[C@H](C)O2)[C@H](C)[C@@H](O[C@@H]2O[C@H](C)C[C@H](N(C)C)[C@H]2O)[C@](C)(O)C[C@@H](C)C(=O)[C@H](C)[C@@H](O)[C@]1(C)O [*3, Erythromycin A, reference compound]	–	0.2 µg/mL (≈ 0.273 µM)	–	–	25 µg/mL (≈ 34.1 µM)	–	6.25 µg/mL (≈ 8.52 µM)	0.4 µg/mL (≈ 0.545 µM)	0.2 µg/mL (≈ 0.273 µM)	0.2 µg/mL (≈ 0.273 µM)
CCC1OC(=O)C(C)C(OC2CC(C)(OC)C(O)C(C)O2)C(C)C(OC2OC(C)CC([N+](C)(C)C)C2O)C2(C)CC(C)=C(O2)C(C)C(O)C1(C)O (centres unmarked) [Compound 1]	> 100 µg/mL	> 100 µg/mL	> 100 µg/mL	> 100 µg/mL	> 100 µg/mL	> 100 µg/mL	–	–	–	–
CCC1OC(=O)C(C)C(OC2CC(C)(OC)C(O)C(C)O2)C(C)C(OC2OC(C)CC([N+](C)(C)C)C2O)C2(C)CC(C)=C(O2)C(C)C(OC(C)=O)C1(C)OC(C)=O (centres unmarked) [Compound 2]	> 100 µg/mL	100 µg/mL	100 µg/mL	100 µg/mL	> 100 µg/mL	100 µg/mL	–	–	–	–

Second part, led by results:

MIC [1, 4]	MIC (Bacillus subtilis)	MIC ([2]; Staphylococcus aureus FDA 209P)	MIC (Bacillus cereus IFO 3001; [5])	MIC (Escherichia coli NIHJ)	MIC [3, 6]	SMILES	MIC ([1]; Klebsiella pneumoniae, ATCC10031, read-out: MIC KP)	MIC [2]	MIC (Bacillus cereus IFO 3001; IFO3001, read-out: MIC BC)	MIC [3]
> 100 µg/mL	> 100 µg/mL	> 100 µg/mL	> 100 µg/mL	> 100 µg/mL	> 100 µg/mL	CCC1OC(=O)C(C)C(OC2CC(C)(OC)C(O)C(C)O2)C(C)C(OC2OC(C)CC([N+](C)(C)C)C2O)C2(C)CC(C)=C(O2)C(C)C(OS(C)(=O)=O)C1(C)O (centres unmarked) [Compound 3]	–	–	–	–
> 100 µg/mL	> 100 µg/mL	> 100 µg/mL	> 100 µg/mL	> 100 µg/mL	> 100 µg/mL	CCC1OC(=O)C(C)C(OC2CC(C)(OC)C(OC=O)C(C)O2)C(C)C(OC2OC(C)CC([N+](C)(C)C)C2O)C2(C)CC(C)=C(O2)C(C)C(OS(C)(=O)=O)C1(C)O (centres unmarked) [Compound 4]	–	–	–	–
> 100 µg/mL	> 100 µg/mL	> 100 µg/mL	> 100 µg/mL	> 100 µg/mL	> 100 µg/mL	CCC1OC(=O)C(C)C(OC2CC(C)(OC)C(O)C(C)O2)C(C)C(OC2OC(C)CC([N+](C)(C)CC)C2O)C2(C)CC(C)=C(O2)C(C)C(O)C1(C)O (centres unmarked) [Compound 5]	–	–	–	–
> 100 µg/mL	> 100 µg/mL	> 100 µg/mL	> 100 µg/mL	> 100 µg/mL	> 100 µg/mL	CCC[N+](C)(C)C1CC(C)OC(OC2C(C)C(OC3CC(C)(OC)C(O)C(C)O3)C(C)C(=O)OC(CC)C(C)(O)C(O)C(C)C3=C(C)CC2(C)O3)C1O (centres unmarked) [Compound 6]	–	–	–	–
> 100 µg/mL	> 100 µg/mL	> 100 µg/mL	> 100 µg/mL	> 100 µg/mL	100 µg/mL	CCC1OC(=O)C(C)C(OC2CC(C)(OC)C(O)C(C)O2)C(C)C(OC2OC(C)CC([N+](C)(C)C)C2OC(C)=O)C2(C)CC(C)=C(O2)C(C)C(O)C1(C)O (centres unmarked) [Compound 7]	–	–	–	–
> 100 µg/mL	> 100 µg/mL	> 100 µg/mL	> 100 µg/mL	> 100 µg/mL	> 100 µg/mL	CCC1OC(=O)C(C)C(OC2CC(C)(OC)C(O)C(C)O2)C(C)C(OC2OC(C)CC(NC)C2O)C2(C)CC(C)=C(O2)C(C)C(O)C1(C)O (centres unmarked) [Compound 8]	–	–	–	–
> 100 µg/mL	> 100 µg/mL	> 100 µg/mL	> 100 µg/mL	> 100 µg/mL	> 100 µg/mL	CCC1OC(=O)C(C)C(OC2CC(C)(OC)C(O)C(C)O2)C(C)C(OC2OC(C)CC(N)C2O)C2(C)CC(C)=C(O2)C(C)C(O)C1(C)O (centres unmarked) [Compound 9]	–	–	–	–
> 100 µg/mL	> 100 µg/mL	> 100 µg/mL	> 100 µg/mL	> 100 µg/mL	> 100 µg/mL	CCC1OC(=O)C(C)C(OC2CC(C)(OC)C(O)C(C)O2)C(C)C(OC2OC(C)CC(N(C)CC)C2O)C2(C)CC(C)=C(O2)C(C)C(O)C1(C)O (centres unmarked) [Compound 10]	–	–	–	–
